According to BindingDB's records for patent US20250177582 (Philochem, 2025):

Assays:
Prolyl endopeptidase FAP [1] = molecular target: T1, Prolyl endopeptidase FAP (Homo sapiens, UniProt Q12884); experiment: Inhibition Assay
T1 sequence (Q12884 whole entry): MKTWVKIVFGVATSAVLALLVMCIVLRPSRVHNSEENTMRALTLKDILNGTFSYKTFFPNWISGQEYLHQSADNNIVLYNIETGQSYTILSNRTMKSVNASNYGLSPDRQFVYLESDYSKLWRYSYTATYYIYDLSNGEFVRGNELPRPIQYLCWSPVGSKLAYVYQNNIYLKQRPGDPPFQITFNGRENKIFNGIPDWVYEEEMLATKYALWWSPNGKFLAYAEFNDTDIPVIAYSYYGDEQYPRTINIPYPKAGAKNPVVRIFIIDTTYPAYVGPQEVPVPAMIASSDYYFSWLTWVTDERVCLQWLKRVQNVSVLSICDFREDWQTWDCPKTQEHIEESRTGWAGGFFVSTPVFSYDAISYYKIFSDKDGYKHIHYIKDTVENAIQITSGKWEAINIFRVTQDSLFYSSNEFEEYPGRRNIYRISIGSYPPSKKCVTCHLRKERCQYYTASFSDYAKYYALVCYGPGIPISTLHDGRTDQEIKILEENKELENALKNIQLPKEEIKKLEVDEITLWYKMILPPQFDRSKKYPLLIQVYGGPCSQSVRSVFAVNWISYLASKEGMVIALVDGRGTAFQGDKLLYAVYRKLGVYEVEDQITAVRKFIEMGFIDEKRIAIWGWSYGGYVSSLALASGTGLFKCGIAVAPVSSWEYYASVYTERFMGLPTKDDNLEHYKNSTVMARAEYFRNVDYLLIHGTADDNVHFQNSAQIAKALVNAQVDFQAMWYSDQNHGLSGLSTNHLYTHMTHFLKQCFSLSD
Protocol: (§1) Inhibition assay of FAP. The compounds were precisely weighed (range between […]) on a micro-scale (HuberLab, Sartorius QUINTIX35-1S) and dissolved in DMSO to prepare stock solutions at 1 mM. Stock solutions were further diluted with FAP activation buffer (50 mM Tris, 100 mM NaCl, 1 mM EDTA, pH=7.4) to a final DMSO concentration of 10% v/v. 10 μL of each inhibitor were serially diluted in a 384 well plate (grenier-bio one, PS, F-bottom, Black, non-binding) with 10 μL of 10% DMSO FAP buffer (1:1 dilution). FAP (human and murine) was diluted to the desired concentration with FAP activation buffer and added to the serial dilution of inhibitor (10 μL for each well). Each protein-inhibitor solution was incubated for 30 minutes at room temperature. Each measurement was performed with an enzyme concentration (FAP) lower than the expected IC50. A 60 μM solution of substrate (Z-Gly-Pro-AMC) in FAP activation buffer (<1% DMSO) was added to the plate (10 μL for each well). The reaction was incubated from 1 minute to 48 hours at room temperature (22° C.-25° C.). The emission was read at 465 nm (excitation wavelength 360 nm) for 40 μs by Tecan Spark (s.n. 1808004082). […]

Prolyl endopeptidase FAP [2] = molecular target: T2, Prolyl endopeptidase FAP (Mus musculus, UniProt P97321); experiment: Inhibition Assay
T2 sequence (P97321 whole entry): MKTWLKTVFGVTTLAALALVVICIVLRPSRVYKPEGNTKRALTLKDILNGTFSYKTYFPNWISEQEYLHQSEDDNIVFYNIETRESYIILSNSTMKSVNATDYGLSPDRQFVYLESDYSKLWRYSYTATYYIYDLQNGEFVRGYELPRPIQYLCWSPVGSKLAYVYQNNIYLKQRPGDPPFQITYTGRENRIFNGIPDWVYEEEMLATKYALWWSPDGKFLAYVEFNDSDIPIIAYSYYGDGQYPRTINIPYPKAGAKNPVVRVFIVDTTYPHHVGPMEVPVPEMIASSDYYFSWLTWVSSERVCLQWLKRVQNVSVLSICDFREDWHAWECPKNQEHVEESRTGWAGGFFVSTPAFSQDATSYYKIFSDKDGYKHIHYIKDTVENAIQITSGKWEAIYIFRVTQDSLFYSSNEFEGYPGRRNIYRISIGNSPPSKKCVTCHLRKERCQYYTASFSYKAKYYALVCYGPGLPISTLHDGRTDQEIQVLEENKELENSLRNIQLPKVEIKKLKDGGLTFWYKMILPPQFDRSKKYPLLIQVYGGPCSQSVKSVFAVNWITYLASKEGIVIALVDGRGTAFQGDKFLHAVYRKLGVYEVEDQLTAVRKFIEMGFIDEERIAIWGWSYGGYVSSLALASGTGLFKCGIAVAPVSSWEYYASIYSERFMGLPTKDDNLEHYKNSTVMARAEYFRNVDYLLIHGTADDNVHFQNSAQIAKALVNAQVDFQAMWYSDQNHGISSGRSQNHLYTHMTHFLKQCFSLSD
Protocol: as §1

Which IC50 (Prolyl endopeptidase FAP [1]) does the source give for `C#CC[C@H](NC(=O)[C@H](CCCNC(=N)N(C)C)NC(=O)c1coc(CNC(=O)CCC(=O)N2CC(F)(F)C[C@H]2C#N)c1)C(=O)N[C@@H](CCCCN)C(=O)O` [US20250177582, Compound 2] here?
Its IC50 is 44.1 nM.

And the IC50 (Prolyl endopeptidase FAP [2])?
Its IC50 is 29.2 nM.
